The values below are quoted from earlier work in patent US11260068B2, “Long-circulating liposome modified with c(RGD-ACP-K)” (BEIJING GREATSUN BIO-PHARM. TECH. CO., LTD, priority 2017, dated 2022).

For the series, the target named is T1, integrin αvβ3 on the surface of U87MG cells (Homo sapiens, UniProt P05106+P06756).
T1 construct: U87MG glioblastoma cells expressing integrin αvβ3; endogenous in cells; host or cells: U87MG glioblastoma cells
Conditions: reference c(RGDyK).

“Also recorded” adds a separate entry of the source. Starred links: 1 amine or outer side, 2 acyl side, 3 side chain; linkers in the order of their positions; H or OH if unused. Non-standard residues stand in square brackets, D forms with d. Residues, ends and D or L forms follow the SMILES beside them. X1 = O=C(C1CCC(N[*:1])C1)[*:2]

T1 sequence (P06756 31-889 limits assumed): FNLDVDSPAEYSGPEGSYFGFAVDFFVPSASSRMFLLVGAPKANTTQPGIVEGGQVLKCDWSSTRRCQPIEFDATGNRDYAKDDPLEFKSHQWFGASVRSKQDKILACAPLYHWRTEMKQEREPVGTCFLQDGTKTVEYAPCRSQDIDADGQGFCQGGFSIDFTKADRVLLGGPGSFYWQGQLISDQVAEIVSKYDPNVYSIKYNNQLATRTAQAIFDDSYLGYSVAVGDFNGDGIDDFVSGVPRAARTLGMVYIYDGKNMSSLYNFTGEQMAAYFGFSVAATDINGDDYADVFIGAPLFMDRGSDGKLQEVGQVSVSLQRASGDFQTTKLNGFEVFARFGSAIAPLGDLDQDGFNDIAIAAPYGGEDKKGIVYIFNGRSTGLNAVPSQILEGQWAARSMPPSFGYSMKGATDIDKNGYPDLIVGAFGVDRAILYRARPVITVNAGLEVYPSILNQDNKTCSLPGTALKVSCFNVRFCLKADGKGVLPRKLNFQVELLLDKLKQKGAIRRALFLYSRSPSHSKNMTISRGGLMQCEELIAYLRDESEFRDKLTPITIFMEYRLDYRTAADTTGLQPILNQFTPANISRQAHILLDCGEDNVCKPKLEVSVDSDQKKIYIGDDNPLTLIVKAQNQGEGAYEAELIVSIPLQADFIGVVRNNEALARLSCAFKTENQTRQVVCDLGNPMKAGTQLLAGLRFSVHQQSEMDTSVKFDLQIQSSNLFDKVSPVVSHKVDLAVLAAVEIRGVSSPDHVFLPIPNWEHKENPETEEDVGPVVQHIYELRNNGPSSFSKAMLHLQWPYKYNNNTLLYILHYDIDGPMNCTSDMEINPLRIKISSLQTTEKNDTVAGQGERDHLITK
T1 sequence (P06756 891-1048 partner limits assumed): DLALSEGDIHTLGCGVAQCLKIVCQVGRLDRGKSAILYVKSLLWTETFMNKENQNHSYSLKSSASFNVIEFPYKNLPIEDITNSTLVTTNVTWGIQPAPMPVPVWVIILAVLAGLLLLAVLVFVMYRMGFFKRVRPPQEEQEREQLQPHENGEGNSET
T1 sequence (P05106 27-788): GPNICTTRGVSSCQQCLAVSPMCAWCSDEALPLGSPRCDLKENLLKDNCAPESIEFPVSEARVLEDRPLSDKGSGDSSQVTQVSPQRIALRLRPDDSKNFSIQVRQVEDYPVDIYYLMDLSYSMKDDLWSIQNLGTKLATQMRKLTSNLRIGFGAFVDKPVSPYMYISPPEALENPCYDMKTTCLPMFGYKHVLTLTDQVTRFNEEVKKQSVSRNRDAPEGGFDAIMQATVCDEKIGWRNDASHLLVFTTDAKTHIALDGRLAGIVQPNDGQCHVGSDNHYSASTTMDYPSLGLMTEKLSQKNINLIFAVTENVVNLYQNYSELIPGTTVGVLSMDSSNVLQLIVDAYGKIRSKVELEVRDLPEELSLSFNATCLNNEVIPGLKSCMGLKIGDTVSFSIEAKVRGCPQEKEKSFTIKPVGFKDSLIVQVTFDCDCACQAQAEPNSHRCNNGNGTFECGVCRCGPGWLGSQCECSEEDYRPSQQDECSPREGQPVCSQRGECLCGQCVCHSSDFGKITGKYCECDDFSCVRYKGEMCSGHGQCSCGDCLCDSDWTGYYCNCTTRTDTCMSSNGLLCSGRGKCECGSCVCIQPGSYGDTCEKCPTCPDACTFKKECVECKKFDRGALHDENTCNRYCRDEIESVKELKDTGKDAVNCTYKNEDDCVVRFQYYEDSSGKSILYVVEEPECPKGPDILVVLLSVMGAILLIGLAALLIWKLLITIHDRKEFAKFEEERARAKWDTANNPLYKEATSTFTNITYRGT

Consider `N=C(N)NCCC[C@@H]1NC(=O)[C@H](CCCCN)NC(=O)C2CCC(C2)NC(=O)[C@H](CC(=O)O)NC(=O)CNC1=O` (stereo partly drawn) [c(RGD-ACP-K), cyclo[RGD-(1S,3R)-3-aminocyclopentane-1-carboxylic acid]] (cyclo(RGD[X1]K)), for which the “binding to integrin αvβ3 on the surface of U87MG cells” value was “superior to that of the cyclic peptide c(RGDyK); also recorded: significantly higher than that of c(RGD-ACH-K)”.
For the molecule “cyclic [c(RGD-ACH-K), cyclic [RGD-(1S,3R)-3-aminocyclohexanecarboxylic acid]]”, the “binding to integrin αvβ3 on the surface of U87MG cells” value is “superior to that of the cyclic peptide c(RGDyK)”.
